From patent US10736968B2, “Cellular signalling inhibitors, their formulations and methods thereof” (INVICTUS ONCOLOGY PVT. LTD., priority 2016, dated 2020)

System: AKT-mTOR-p70S6K pathway
Assay: Downstream signaling in macrophages after drug washout and MCSF exposure (Western blot)
Assay type: cell-based
Conditions: 4 hours drug, washout 7 h or 48 h, MCSF 2 h

FC(F)(F)c1ccc(CNc2ccc(Cc3c[nH]c4ncc(Cl)cc34)cn2)cn1 [PLX3397]
AKT-mTOR-p70S6K downstream signaling: not by BLZ945 and PLX3397
